# Source: PubChem BioAssay (NCI)
#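 Dose response: 5 concentrations. Exposure: 48 h. Format: 96-well plates. Endpoint: linear interpolation; highest concentration if not reached. The concentration for full growth arrest is given as TGI.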
# Tests used:
# Assay in all cases: DTP human tumour cell line panel, 48 h
# MOLT-4 leukemia = test system: MOLT-4 leukemia
# SF-295 CNS = test system: SF-295 CNS
# OVCAR-8 ovarian = test system: OVCAR-8 ovarian
# UO-31 renal = test system: UO-31 renal
# HOP-92 NSCLC = test system: HOP-92 NSCLC
# HS 578T breast = test system: HS 578T breast
# ACHN renal = test system: ACHN renal
# SR leukemia = test system: SR leukemia
# TK-10 renal = test system: TK-10 renal
# EKVX NSCLC = test system: EKVX NSCLC
# T-47D breast = test system: T-47D breast
# NCI/ADR-RES ovarian = test system: NCI/ADR-RES ovarian
# BT-549 breast = test system: BT-549 breast
# M14 melanoma = test system: M14 melanoma
# UACC-257 melanoma = test system: UACC-257 melanoma
# MALME-3M melanoma = test system: MALME-3M melanoma
# NCI-H522 lung = test system: NCI-H522 lung
# HT29 colon = test system: HT29 colon
# UACC-62 melanoma = test system: UACC-62 melanoma
# SK-MEL-28 melanoma = test system: SK-MEL-28 melanoma
# SK-OV-3 ovarian = test system: SK-OV-3 ovarian
# MCF7 breast = test system: MCF7 breast
# MDA-MB-435 = test system: MDA-MB-435
# U251 CNS = test system: U251 CNS
# HCC-2998 colon = test system: HCC-2998 colon
# RXF 393 renal = test system: RXF 393 renal
# HL-60(TB) leukemia = test system: HL-60(TB) leukemia
# SNB-19 CNS = test system: SNB-19 CNS
# NCI-H460 lung = test system: NCI-H460 lung
# MDA-MB-231 breast = test system: MDA-MB-231 breast
# SN12C renal = test system: SN12C renal
# 786-0 renal = test system: 786-0 renal
# HOP-62 NSCLC = test system: HOP-62 NSCLC
# CAKI-1 renal = test system: CAKI-1 renal
# MDA-N = test system: MDA-N
# A498 renal = test system: A498 renal
# A549 NSCLC = test system: A549 NSCLC
# SK-MEL-5 melanoma = test system: SK-MEL-5 melanoma
# OVCAR-5 ovarian = test system: OVCAR-5 ovarian
# SF-268 CNS = test system: SF-268 CNS
# HCT-116 colon = test system: HCT-116 colon
# OVCAR-4 ovarian = test system: OVCAR-4 ovarian
# OVCAR-3 ovarian = test system: OVCAR-3 ovarian
# LOX IMVI melanoma = test system: LOX IMVI melanoma
# SNB-75 CNS = test system: SNB-75 CNS
# PC-3 prostate = test system: PC-3 prostate
# NCI-H23 lung = test system: NCI-H23 lung
# NCI-H226 lung = test system: NCI-H226 lung
# RPMI-8226 leukemia = test system: RPMI-8226 leukemia
# SK-MEL-2 melanoma = test system: SK-MEL-2 melanoma
# SF-539 CNS = test system: SF-539 CNS
# IGROV1 ovarian = test system: IGROV1 ovarian
# COLO 205 colon = test system: COLO 205 colon
# KM12 colon = test system: KM12 colon
# HCT-15 colon = test system: HCT-15 colon
# DU-145 prostate = test system: DU-145 prostate
# SW-620 colon = test system: SW-620 colon
structure (smiles),measurement,setting,value
COC1/C=C/C(C)C(OC)CC(O)/C=C/C(C)C(C(C)C(OC)C(C)CCC(=O)C(C)C(C/C=C/N(C)C=O)OC)OC(=O)/C=C/C=C(\C)CC(OC)C(OC)C2=CC(=O)O[C@@H](C(C)C(OC)C1)[C@H]2O (some centres not stated),TGI,MOLT-4 leukemia,> 9730 nM
same,TGI,SF-295 CNS,79.7 nM
same,TGI,OVCAR-8 ovarian,199 nM
same,TGI,UO-31 renal,76.1 nM
same,TGI,HOP-92 NSCLC,77.3 nM
same,TGI,HS 578T breast,93 nM
same,TGI,ACHN renal,158 nM
same,TGI,SR leukemia,> 25000 nM
same,TGI,TK-10 renal,124 nM
same,TGI,EKVX NSCLC,280 nM
same,TGI,T-47D breast,151 nM
same,TGI,NCI/ADR-RES ovarian,145 nM
same,TGI,BT-549 breast,163 nM
same,TGI,M14 melanoma,84.9 nM
same,TGI,UACC-257 melanoma,105 nM
same,TGI,MALME-3M melanoma,115 nM
same,TGI,NCI-H522 lung,72.2 nM
same,TGI,HT29 colon,> 25000 nM
same,TGI,UACC-62 melanoma,185 nM
same,TGI,SK-MEL-28 melanoma,121 nM
same,TGI,SK-OV-3 ovarian,104 nM
same,TGI,MCF7 breast,170 nM
same,TGI,MDA-MB-435,195 nM
same,TGI,U251 CNS,120 nM
same,TGI,HCC-2998 colon,51.8 nM
same,TGI,RXF 393 renal,78 nM
same,TGI,HL-60(TB) leukemia,> 25000 nM
same,TGI,SNB-19 CNS,244 nM
same,TGI,NCI-H460 lung,188 nM
same,TGI,MDA-MB-231 breast,83.5 nM
same,TGI,SN12C renal,> 25000 nM
same,TGI,786-0 renal,113 nM
same,TGI,HOP-62 NSCLC,67.3 nM
same,TGI,CAKI-1 renal,52.6 nM
same,TGI,MDA-N,159 nM
same,TGI,A498 renal,61.4 nM
same,TGI,A549 NSCLC,497 nM
same,TGI,SK-MEL-5 melanoma,76.3 nM
same,TGI,OVCAR-5 ovarian,118 nM
same,TGI,SF-268 CNS,129 nM
same,TGI,HCT-116 colon,61.3 nM
same,TGI,OVCAR-4 ovarian,1410 nM
same,TGI,OVCAR-3 ovarian,48.9 nM
same,TGI,LOX IMVI melanoma,25 nM
same,TGI,SNB-75 CNS,85.9 nM
same,TGI,PC-3 prostate,86.2 nM
same,TGI,NCI-H23 lung,151 nM
same,TGI,NCI-H226 lung,71.4 nM
same,TGI,RPMI-8226 leukemia,3240 nM
COc1cc(N=C(N)N=C(N)N)c2ncccc2c1,TGI,SK-MEL-2 melanoma,> 100000 nM
same,TGI,SF-295 CNS,> 100000 nM
same,TGI,OVCAR-8 ovarian,> 100000 nM
same,TGI,UO-31 renal,> 100000 nM
same,TGI,HOP-92 NSCLC,> 100000 nM
same,TGI,HS 578T breast,> 100000 nM
same,TGI,SF-539 CNS,> 100000 nM
same,TGI,ACHN renal,> 100000 nM
same,TGI,TK-10 renal,> 100000 nM
same,TGI,EKVX NSCLC,> 100000 nM
same,TGI,T-47D breast,> 100000 nM
same,TGI,IGROV1 ovarian,> 100000 nM
same,TGI,NCI/ADR-RES ovarian,> 100000 nM
same,TGI,BT-549 breast,> 100000 nM
same,TGI,M14 melanoma,> 100000 nM
same,TGI,UACC-257 melanoma,> 100000 nM
same,TGI,MALME-3M melanoma,> 100000 nM
same,TGI,NCI-H522 lung,> 100000 nM
same,TGI,HT29 colon,> 100000 nM
same,TGI,UACC-62 melanoma,> 100000 nM
same,TGI,COLO 205 colon,> 100000 nM
same,TGI,SK-MEL-28 melanoma,> 100000 nM
same,TGI,SK-OV-3 ovarian,> 100000 nM
same,TGI,MCF7 breast,> 100000 nM
same,TGI,MDA-MB-435,> 100000 nM
same,TGI,U251 CNS,> 100000 nM
same,TGI,HCC-2998 colon,> 100000 nM
same,TGI,RXF 393 renal,> 100000 nM
same,TGI,SNB-19 CNS,> 100000 nM
same,TGI,NCI-H460 lung,> 100000 nM
same,TGI,MDA-MB-231 breast,> 100000 nM
same,TGI,SN12C renal,> 100000 nM
same,TGI,786-0 renal,> 100000 nM
same,TGI,KM12 colon,> 100000 nM
same,TGI,HOP-62 NSCLC,> 100000 nM
same,TGI,CAKI-1 renal,> 100000 nM
same,TGI,MDA-N,> 100000 nM
same,TGI,A498 renal,> 100000 nM
same,TGI,A549 NSCLC,> 100000 nM
same,TGI,SK-MEL-5 melanoma,> 100000 nM
same,TGI,OVCAR-5 ovarian,> 100000 nM
same,TGI,SF-268 CNS,> 100000 nM
same,TGI,HCT-116 colon,> 100000 nM
same,TGI,OVCAR-4 ovarian,> 100000 nM
same,TGI,OVCAR-3 ovarian,> 100000 nM
same,TGI,LOX IMVI melanoma,> 100000 nM
same,TGI,SNB-75 CNS,> 100000 nM
same,TGI,PC-3 prostate,> 100000 nM
same,TGI,NCI-H23 lung,> 100000 nM
same,TGI,HCT-15 colon,> 100000 nM
same,TGI,NCI-H226 lung,62700 nM
same,TGI,DU-145 prostate,> 100000 nM
same,TGI,SW-620 colon,> 100000 nM
